Data on one compound can be found in patent US6878698B2, “Anti-inflammatory androstane derivatives” (Glaxo Group Limited, priority 2001, dated 2005).

What all share (format): cell-based
The target of one test is T1, glucocorticoid receptor (Homo sapiens, UniProt P04150).
T1 construct: A549 cells stably transfected with a reporter gene containing the NF-κB responsive elements from the ELAM gene promoter; endogenous in cells; host or cells: A549 cells stably transfected with the reporter gene only
T1 sequence (P04150 1-777): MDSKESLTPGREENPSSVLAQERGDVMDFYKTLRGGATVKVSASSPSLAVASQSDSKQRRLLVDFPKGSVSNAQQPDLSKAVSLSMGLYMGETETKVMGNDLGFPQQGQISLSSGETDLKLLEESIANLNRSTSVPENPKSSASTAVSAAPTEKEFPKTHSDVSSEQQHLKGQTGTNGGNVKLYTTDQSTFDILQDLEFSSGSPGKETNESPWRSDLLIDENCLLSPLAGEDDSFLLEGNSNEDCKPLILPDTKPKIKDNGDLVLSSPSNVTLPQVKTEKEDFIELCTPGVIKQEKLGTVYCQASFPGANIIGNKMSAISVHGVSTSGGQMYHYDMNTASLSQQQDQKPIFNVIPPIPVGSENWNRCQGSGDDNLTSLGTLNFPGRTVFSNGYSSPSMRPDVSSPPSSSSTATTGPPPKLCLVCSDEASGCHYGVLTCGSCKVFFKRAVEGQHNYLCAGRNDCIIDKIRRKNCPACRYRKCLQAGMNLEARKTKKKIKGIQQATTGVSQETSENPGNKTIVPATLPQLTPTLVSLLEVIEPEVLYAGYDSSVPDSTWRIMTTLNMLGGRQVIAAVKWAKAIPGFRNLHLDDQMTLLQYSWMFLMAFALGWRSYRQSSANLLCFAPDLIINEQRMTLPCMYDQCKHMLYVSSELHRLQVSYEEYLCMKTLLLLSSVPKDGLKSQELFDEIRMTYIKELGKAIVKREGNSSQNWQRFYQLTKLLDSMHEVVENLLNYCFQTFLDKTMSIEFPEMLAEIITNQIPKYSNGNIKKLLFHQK
In words: Functional in vitro assay of glucocorticoid agonist activity (A549 cells, NF-κB/ELAM promoter sPAP reporter, TNF stimulated). The conditions noted are these: in vitro functional glucocorticoid agonist assays; relative to Example 1. The protocol: Pharmacological activity was assessed in a functional in vitro assay of glucocorticoid agonist activity which is generally predictive of anti-inflammatory or anti-allergic activity in vivo.
A549 cells stably transfected with a reporter gene containing the NF-κB responsive elements from the ELAM gene promoter coupled to sPAP (secreted alkaline phosphatase) were treated with test compounds at appropriate doses for 1 hour at 37° C. […] Dose response curves were constructed from which EC50 values were estimated.

Test [1] addresses T2, glucocorticoid receptor (GR) (Homo sapiens, UniProt P04150). Kind of test: Transactivation (GR): renilla luciferase reporter with glucocorticoid response elements in A549 cells. The conditions noted are these: GRE renilla luciferase reporter, 1 h compound, then 0.5 ng/ml TNFα, further 15 hours, read-out: Transactivation (GR) ED50. An excerpt: (§1) The glucocorticoid receptor (GR) can function in at least two distinct mechanisms, by upregulating gene expression through the direct binding of GR to specific sequences in gene promoters, and by downregulating gene expression that is being driven by other transcription factors (such as NFκB or AP-1) through their direct interaction with GR.
(§2) The first cell line contains the firefly luciferase reporter gene under the control of a synthetic promoter that specifically responds to activation of the transcription factor NFκB when stimulated with TNFα. The second cell line contains the renilla luciferase reporter gene under the control of a synthetic promotor that comprises 3 copies of the consensus glucocorticoid response element, and which responds to direct stimulation by glucocorticoids. Simultaneous measurement of transactivation and transrepression was conducted by mixing the two cell lines in a 1:1 ratio in 96 well plate (40,000 cells per well) and growing overnight at 37° C. Test compounds were dissolved in DMSO, and added to the cells at a final DMSO concentration of 0.7%. After incubation for 1 h 0.5 ng/ml TNFα (R&D Systems) was added and after a further 15 hours at 37° C., the levels of firefly and renilla luciferase were measured using the Packard Firelite kit following the manufacturers' directions. Dose response curves were constructed from which EC50 values were determined.
A general note: Reporter assays use an easily measured gene product as a stand-in for the process of interest.

For test [2], the target named is T2, glucocorticoid receptor (GR). In words: Transrepression (NFκB): firefly luciferase NFκB reporter in A549 cells stimulated with TNFα. As to conditions: 1 h compound, then 0.5 ng/ml TNFα, further 15 hours, read-out: Transrepression (NFκB) ED50.
Text: as §1, §2

`C[C@@H]1C[C@H]2[C@@H]3C[C@H](F)C4=CC(=O)C=C[C@]4(C)[C@@]3(F)[C@@H](O)C[C@]2(C)[C@@]1(OC(=O)c1ccco1)C(=O)O` [Metabolite (X)]: the “fold less active than the parent compound” value at glucocorticoid receptor is recorded as more than 1000 fold. The results for the EC50 in test [1] and in test [2] were more than 250 nM and more than 1000 nM, respectively.
